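How tested: cells in 96-well plates exposed to compound for 48 hours at five concentrations. TGI: concentration producing complete growth inhibition.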
Tests used:
Test in all cases: NCI-60 cell line screen, 48 h
HOP-18 NSCLC = test system: HOP-18 NSCLC
U251 CNS = test system: U251 CNS
HCT-116 colon = test system: HCT-116 colon
SF-539 CNS = test system: SF-539 CNS
CCRF-CEM leukemia = test system: CCRF-CEM leukemia
HCC-2998 colon = test system: HCC-2998 colon
OVCAR-5 ovarian = test system: OVCAR-5 ovarian
MALME-3M melanoma = test system: MALME-3M melanoma
KM20L2 colon = test system: KM20L2 colon
SN12C renal = test system: SN12C renal
HL-60(TB) leukemia = test system: HL-60(TB) leukemia
A498 renal = test system: A498 renal
ACHN renal = test system: ACHN renal
COLO 205 colon = test system: COLO 205 colon
M14 melanoma = test system: M14 melanoma
SNB-75 CNS = test system: SNB-75 CNS
IGROV1 ovarian = test system: IGROV1 ovarian
HOP-62 NSCLC = test system: HOP-62 NSCLC
SNB-19 CNS = test system: SNB-19 CNS
UACC-62 melanoma = test system: UACC-62 melanoma
NCI-H226 lung = test system: NCI-H226 lung
SK-MEL-28 melanoma = test system: SK-MEL-28 melanoma
SF-268 CNS = test system: SF-268 CNS
NCI-H460 lung = test system: NCI-H460 lung
OVCAR-3 ovarian = test system: OVCAR-3 ovarian
MOLT-4 leukemia = test system: MOLT-4 leukemia
UO-31 renal = test system: UO-31 renal
OVCAR-8 ovarian = test system: OVCAR-8 ovarian
LOX IMVI melanoma = test system: LOX IMVI melanoma
SF-295 CNS = test system: SF-295 CNS
DLD-1 colon = test system: DLD-1 colon
LXFL 529 NSCLC = test system: LXFL 529 NSCLC
XF 498 CNS = test system: XF 498 CNS
HCT-15 colon = test system: HCT-15 colon
CAKI-1 renal = test system: CAKI-1 renal
SK-MEL-5 melanoma = test system: SK-MEL-5 melanoma
SK-OV-3 ovarian = test system: SK-OV-3 ovarian
NCI-H522 lung = test system: NCI-H522 lung
786-0 renal = test system: 786-0 renal
UACC-257 melanoma = test system: UACC-257 melanoma
HOP-92 NSCLC = test system: HOP-92 NSCLC
SR leukemia = test system: SR leukemia
KM12 colon = test system: KM12 colon
DMS 114 small cell lung = test system: DMS 114 small cell lung
RXF-631 renal = test system: RXF-631 renal
RPMI-8226 leukemia = test system: RPMI-8226 leukemia
M19-MEL melanoma = test system: M19-MEL melanoma
SNB-78 CNS = test system: SNB-78 CNS
NCI-H23 lung = test system: NCI-H23 lung
SK-MEL-2 melanoma = test system: SK-MEL-2 melanoma
K-562 leukemia = test system: K-562 leukemia
EKVX NSCLC = test system: EKVX NSCLC
HT29 colon = test system: HT29 colon
TK-10 renal = test system: TK-10 renal
RXF 393 renal = test system: RXF 393 renal
A549 NSCLC = test system: A549 NSCLC
OVCAR-4 ovarian = test system: OVCAR-4 ovarian
SW-620 colon = test system: SW-620 colon

`CN1CC[C@]2(C)c3c(O)cccc3CC3CCCC1C32C` (stereo not given in full) was tested. Which TGI (HOP-18 NSCLC) did it give?
Its TGI is > 100 µM.

And the TGI (U251 CNS)?
Its TGI is > 100 µM.

What about the TGI (HCT-116 colon) of the same molecule?
Its TGI is > 100 µM.

And the TGI (SF-539 CNS)?
Its TGI is > 100 µM.

What about the TGI (CCRF-CEM leukemia) of the same molecule?
Its TGI is > 100 µM.

What about the TGI (HCC-2998 colon) of the same molecule?
Its TGI is 72.7 µM.

And the TGI (OVCAR-5 ovarian)?
The TGI was > 100 µM.

And the TGI (MALME-3M melanoma)?
Its TGI is > 100 µM.

What about the TGI (KM20L2 colon) of the same molecule?
The TGI was > 100 µM.

And the TGI (SN12C renal)?
Its TGI is > 100 µM.

And the TGI (HL-60(TB) leukemia)?
The TGI was > 100 µM.

What about the TGI (A498 renal) of the same molecule?
The TGI was > 100 µM.

What about the TGI (ACHN renal) of the same molecule?
Its TGI is > 100 µM.

And the TGI (COLO 205 colon)?
The TGI was > 100 µM.

And the TGI (M14 melanoma)?
The TGI was > 100 µM.

What about the TGI (SNB-75 CNS) of the same molecule?
The TGI was > 100 µM.

And the TGI (IGROV1 ovarian)?
The TGI was > 100 µM.

What about the TGI (HOP-62 NSCLC) of the same molecule?
The TGI was > 100 µM.

What about the TGI (SNB-19 CNS) of the same molecule?
The TGI was > 100 µM.

What about the TGI (UACC-62 melanoma) of the same molecule?
Its TGI is > 100 µM.

What about the TGI (NCI-H226 lung) of the same molecule?
Its TGI is > 100 µM.

What about the TGI (SK-MEL-28 melanoma) of the same molecule?
The TGI was > 100 µM.

And the TGI (SF-268 CNS)?
The TGI was > 100 µM.

What about the TGI (NCI-H460 lung) of the same molecule?
The TGI was > 100 µM.

And the TGI (OVCAR-3 ovarian)?
Its TGI is > 100 µM.

And the TGI (MOLT-4 leukemia)?
Its TGI is > 100 µM.

And the TGI (UO-31 renal)?
Its TGI is > 100 µM.

What about the TGI (OVCAR-8 ovarian) of the same molecule?
The TGI was > 100 µM.

What about the TGI (LOX IMVI melanoma) of the same molecule?
The TGI was > 100 µM.

And the TGI (SF-295 CNS)?
The TGI was > 100 µM.

And the TGI (DLD-1 colon)?
The TGI was > 100 µM.

What about the TGI (LXFL 529 NSCLC) of the same molecule?
Its TGI is > 100 µM.

What about the TGI (XF 498 CNS) of the same molecule?
Its TGI is > 100 µM.

What about the TGI (HCT-15 colon) of the same molecule?
The TGI was > 100 µM.

And the TGI (CAKI-1 renal)?
The TGI was > 100 µM.

And the TGI (SK-MEL-5 melanoma)?
The TGI was > 100 µM.

And the TGI (SK-OV-3 ovarian)?
The TGI was > 100 µM.

And the TGI (NCI-H522 lung)?
The TGI was > 100 µM.

And the TGI (786-0 renal)?
The TGI was > 100 µM.

What about the TGI (UACC-257 melanoma) of the same molecule?
Its TGI is > 100 µM.

And the TGI (HOP-92 NSCLC)?
Its TGI is > 100 µM.

And the TGI (SR leukemia)?
Its TGI is > 100 µM.

And the TGI (KM12 colon)?
The TGI was > 100 µM.

What about the TGI (DMS 114 small cell lung) of the same molecule?
Its TGI is > 100 µM.

And the TGI (RXF-631 renal)?
The TGI was > 100 µM.

And the TGI (RPMI-8226 leukemia)?
Its TGI is > 100 µM.

And the TGI (M19-MEL melanoma)?
Its TGI is > 100 µM.

And the TGI (SNB-78 CNS)?
Its TGI is > 100 µM.

And the TGI (NCI-H23 lung)?
The TGI was > 100 µM.

And the TGI (SK-MEL-2 melanoma)?
The TGI was > 100 µM.

And the TGI (K-562 leukemia)?
The TGI was > 100 µM.

And the TGI (EKVX NSCLC)?
Its TGI is > 100 µM.

And the TGI (HT29 colon)?
The TGI was > 100 µM.

And the TGI (TK-10 renal)?
The TGI was > 100 µM.

And the TGI (RXF 393 renal)?
Its TGI is > 100 µM.

And the TGI (A549 NSCLC)?
Its TGI is > 100 µM.

How did the TGI (HOP-18 NSCLC) turn out when `CC1=C(C(=O)CC(=O)C(=O)Nc2cccc(Cl)c2C)Sc2ccccc2N1` was run?
The TGI was > 100 µM.

And the TGI (U251 CNS)?
The TGI was > 100 µM.

And the TGI (HCT-116 colon)?
Its TGI is > 100 µM.

And the TGI (SF-539 CNS)?
The TGI was > 100 µM.

What about the TGI (CCRF-CEM leukemia) of the same molecule?
Its TGI is > 100 µM.

And the TGI (HCC-2998 colon)?
The TGI was > 100 µM.

What about the TGI (OVCAR-5 ovarian) of the same molecule?
The TGI was > 100 µM.

What about the TGI (MALME-3M melanoma) of the same molecule?
Its TGI is > 100 µM.

What about the TGI (SN12C renal) of the same molecule?
The TGI was > 100 µM.

And the TGI (HL-60(TB) leukemia)?
The TGI was > 100 µM.

And the TGI (ACHN renal)?
The TGI was > 100 µM.

What about the TGI (M14 melanoma) of the same molecule?
The TGI was > 100 µM.

What about the TGI (IGROV1 ovarian) of the same molecule?
Its TGI is > 100 µM.

What about the TGI (HOP-62 NSCLC) of the same molecule?
The TGI was > 100 µM.

And the TGI (SNB-19 CNS)?
The TGI was > 100 µM.

What about the TGI (UACC-62 melanoma) of the same molecule?
Its TGI is > 100 µM.

What about the TGI (NCI-H226 lung) of the same molecule?
The TGI was > 100 µM.

And the TGI (SK-MEL-28 melanoma)?
The TGI was > 100 µM.

What about the TGI (SF-268 CNS) of the same molecule?
The TGI was > 100 µM.

What about the TGI (NCI-H460 lung) of the same molecule?
Its TGI is > 100 µM.

And the TGI (OVCAR-3 ovarian)?
Its TGI is > 100 µM.

And the TGI (MOLT-4 leukemia)?
Its TGI is > 100 µM.

What about the TGI (UO-31 renal) of the same molecule?
The TGI was > 100 µM.

And the TGI (OVCAR-8 ovarian)?
Its TGI is > 100 µM.

What about the TGI (LOX IMVI melanoma) of the same molecule?
Its TGI is > 100 µM.

What about the TGI (SF-295 CNS) of the same molecule?
The TGI was > 100 µM.

What about the TGI (DLD-1 colon) of the same molecule?
The TGI was > 100 µM.

And the TGI (LXFL 529 NSCLC)?
The TGI was > 100 µM.

What about the TGI (XF 498 CNS) of the same molecule?
Its TGI is > 100 µM.

And the TGI (HCT-15 colon)?
Its TGI is > 100 µM.

And the TGI (CAKI-1 renal)?
Its TGI is > 100 µM.

And the TGI (SK-MEL-5 melanoma)?
The TGI was > 100 µM.

And the TGI (SK-OV-3 ovarian)?
The TGI was > 100 µM.

And the TGI (NCI-H522 lung)?
The TGI was > 100 µM.

And the TGI (786-0 renal)?
The TGI was > 100 µM.

And the TGI (UACC-257 melanoma)?
Its TGI is > 100 µM.

And the TGI (HOP-92 NSCLC)?
The TGI was > 100 µM.

And the TGI (SR leukemia)?
Its TGI is > 100 µM.

What about the TGI (KM12 colon) of the same molecule?
The TGI was > 100 µM.

And the TGI (DMS 114 small cell lung)?
The TGI was > 100 µM.

And the TGI (OVCAR-4 ovarian)?
The TGI was > 100 µM.

What about the TGI (RXF-631 renal) of the same molecule?
Its TGI is > 100 µM.

And the TGI (RPMI-8226 leukemia)?
The TGI was > 100 µM.

And the TGI (M19-MEL melanoma)?
The TGI was > 100 µM.

What about the TGI (SW-620 colon) of the same molecule?
The TGI was > 100 µM.

What about the TGI (SNB-78 CNS) of the same molecule?
The TGI was > 100 µM.

And the TGI (NCI-H23 lung)?
The TGI was > 100 µM.

And the TGI (SK-MEL-2 melanoma)?
Its TGI is > 100 µM.

What about the TGI (K-562 leukemia) of the same molecule?
Its TGI is > 100 µM.

What about the TGI (EKVX NSCLC) of the same molecule?
Its TGI is > 100 µM.

And the TGI (HT29 colon)?
The TGI was > 100 µM.

What about the TGI (TK-10 renal) of the same molecule?
Its TGI is > 100 µM.

What about the TGI (RXF 393 renal) of the same molecule?
Its TGI is > 100 µM.

What about the TGI (A549 NSCLC) of the same molecule?
The TGI was > 100 µM.

From PubChem BioAssay (NCI)
